Test results taken from US20240309418A1, “ENZYMATIC METHODS AND COMPOSITIONS FOR POLYMERIZATION OF PHOSPHORAMIDATE AND THIOPHOSPHORAMIDATE-LINKED DNA” (The General Hospital Corporation, priority 2023, published 2024).
Values joined by “and” are separate entries in the source; they are usually repeats but may differ in a detail not shown here. Equal entries are not always repeated. Where two headings read alike, the source gives them in different places.

Experiments:
wild-type BF = wild-type BF (Geobacillus stearothermophilus, UniProt P52026); type: biochemical, Bacillus stearothermophilus; conditions: for Kinetics of 3′-amino primer extension vs. absence of added divalent metals: 5 mM metal ion, 55° C., pH 8.8; for kpol of 3′-amino primer extension by wild-type BF: varying metal chloride concentration; for Kd: in the presence of 1 mM dCTP, read-out: Kd,app (apparent dissociation constant of metal ion)
Protocol: Primer extension assays. Except where indicated, all extension reactions were performed with 1 μM fluorescein-labeled primer, 1.5 μM template, and ˜1.1 μM purified His6-tagged protein at 55° C. in a reaction buffer composed of 40 mM Tris-HCl, pH 8.8, 1 mM DTT, and a divalent cation as specified, typically 10 mM CaCl2. Reaction mixtures were equilibrated at the indicated reaction temperature for 1 min and initiated by addition of substrate. Progress was monitored by sampling 1 μL from the reaction manually quenched into 24 μL of chilled 90% formamide, 10 mM EDTA. Quenched samples were denatured at 90° C. for 1 min and cooled to room temperature prior to separation by denaturing polyacrylamide gel electrophoresis on 20% TBE-urea gels. To maintain strand separation for long extension products, as in FIGS. 3F-3H, an unlabeled DNA oligonucleotide complementary to the template was added to the quenching buffer (˜2 μM) prior to denaturation. Typically, 3 or 4 μL of quenched sample was loaded per lane for gels of 0.75-mm thickness. Bands were visualized with a Typhoon laser scanning imager (GE Amersham) and quantified with the manufacturer's software. For acid digestion of extended products, a reaction sample was diluted with 2.5 volumes of 1% acetic acid, 10 mM EDTA in formamide and digested at 75° C. for 45 min prior to gel separation.

BF F710Y [1] = biological target: T1, BF F710Y (Geobacillus stearothermophilus, UniProt P52026, F710Y); test: Solvent deuterium kinetic isotope effect (SDKIE) of 3′-amino primer extension; type: biochemical; conditions: 1 mM dCTP, 10 mM CaCl2, varying mole fraction D2O
BF F710Y/D598A [2] = biological target: T2, BF F710Y/D598A (Geobacillus stearothermophilus, UniProt P52026, A338V/A406G/A407V/A456E/A482S/A505K/A513T/A699P/A741E/D309E/D325E/D540E/D696E/D751E/E459R/E695D/F710Y/G324E/G408D/G483S/G600K/G678D/H329D/H417K/H567Y/H573N/H596R/H691Q/I672M/I841M/K356Q/L337V/L358V/L461F/M462L/M605I/N487E/P645S/P870S/Q512G/Q748R/R341H/R388C/R516Q/R816K/R823H/S306R/S424P/S812N/T369S/T436A/T442V/T475V/T491A/T508A/T536V/T728S/T790M/V391S/V413A/V537I/V598A/V619T/V813A); type: biochemical; set-up: burst activity kpol: unit not given here; conditions: for pre-steady-state rate constant for nCTP addition: 3′-amino terminal primer; for Acceleration of kinetics over Ca2+: nCTP addition
BF = BF (Geobacillus stearothermophilus, UniProt P52026, F710Y); test: Extension of a native DNA 3′-OH primer with nCTP and trivalent cofactors; type: biochemical; conditions: for pre-steady-state rate constant for extension of a native DNA 3′-OH terminus with nCTP: 5 mM metal, stoichiometric citrate, 55° C., mean±s.d.
BF F710Y/D598A [3] = biological target: T2, BF F710Y/D598A; type: biochemical; conditions: for Effect on NP-DNA polymerization with all four nNTPs on mixed sequence templates: vs. Ca2+
BF F710Y [4] = biological target: T1, BF F710Y; test: Elemental thio effect on pre-steady-state NP synthesis; type: biochemical; conditions: 45° C.

T2 sequence (P52026 other isoform, or with tags, fused parts or gaps with the stated changes): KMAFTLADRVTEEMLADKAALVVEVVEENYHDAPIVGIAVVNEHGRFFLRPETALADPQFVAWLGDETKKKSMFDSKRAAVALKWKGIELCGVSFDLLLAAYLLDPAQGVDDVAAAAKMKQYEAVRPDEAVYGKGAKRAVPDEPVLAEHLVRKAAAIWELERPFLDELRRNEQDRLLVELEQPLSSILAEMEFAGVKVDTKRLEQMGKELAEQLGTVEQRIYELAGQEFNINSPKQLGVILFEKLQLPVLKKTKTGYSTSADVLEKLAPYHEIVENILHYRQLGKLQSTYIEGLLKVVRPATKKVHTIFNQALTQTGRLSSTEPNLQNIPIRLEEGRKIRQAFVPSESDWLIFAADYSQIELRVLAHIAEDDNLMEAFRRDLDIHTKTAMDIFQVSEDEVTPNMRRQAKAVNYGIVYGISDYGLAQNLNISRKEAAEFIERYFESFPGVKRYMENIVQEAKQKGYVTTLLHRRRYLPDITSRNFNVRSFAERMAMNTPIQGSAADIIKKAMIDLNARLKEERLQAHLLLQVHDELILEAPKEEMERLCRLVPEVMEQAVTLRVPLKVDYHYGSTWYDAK
T1 sequence (P52026 other isoform, or with tags, fused parts or gaps with the stated changes): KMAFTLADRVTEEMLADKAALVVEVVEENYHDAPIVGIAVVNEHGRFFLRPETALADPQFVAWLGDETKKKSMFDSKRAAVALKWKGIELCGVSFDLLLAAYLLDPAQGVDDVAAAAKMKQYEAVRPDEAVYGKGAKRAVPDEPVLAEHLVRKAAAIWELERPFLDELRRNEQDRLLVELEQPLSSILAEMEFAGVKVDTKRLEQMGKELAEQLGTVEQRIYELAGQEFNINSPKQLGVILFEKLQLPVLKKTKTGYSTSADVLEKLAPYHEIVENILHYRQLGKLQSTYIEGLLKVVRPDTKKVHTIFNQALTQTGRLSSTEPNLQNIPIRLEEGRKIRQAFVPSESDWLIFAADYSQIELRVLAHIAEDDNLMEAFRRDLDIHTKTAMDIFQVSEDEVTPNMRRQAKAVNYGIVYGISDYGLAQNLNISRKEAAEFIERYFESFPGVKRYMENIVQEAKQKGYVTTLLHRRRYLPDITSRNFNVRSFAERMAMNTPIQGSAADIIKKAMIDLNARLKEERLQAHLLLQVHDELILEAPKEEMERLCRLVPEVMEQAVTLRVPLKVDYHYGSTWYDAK
wild-type BF, sequence (P52026 other isoform, or with tags, fused parts or gaps with the stated changes): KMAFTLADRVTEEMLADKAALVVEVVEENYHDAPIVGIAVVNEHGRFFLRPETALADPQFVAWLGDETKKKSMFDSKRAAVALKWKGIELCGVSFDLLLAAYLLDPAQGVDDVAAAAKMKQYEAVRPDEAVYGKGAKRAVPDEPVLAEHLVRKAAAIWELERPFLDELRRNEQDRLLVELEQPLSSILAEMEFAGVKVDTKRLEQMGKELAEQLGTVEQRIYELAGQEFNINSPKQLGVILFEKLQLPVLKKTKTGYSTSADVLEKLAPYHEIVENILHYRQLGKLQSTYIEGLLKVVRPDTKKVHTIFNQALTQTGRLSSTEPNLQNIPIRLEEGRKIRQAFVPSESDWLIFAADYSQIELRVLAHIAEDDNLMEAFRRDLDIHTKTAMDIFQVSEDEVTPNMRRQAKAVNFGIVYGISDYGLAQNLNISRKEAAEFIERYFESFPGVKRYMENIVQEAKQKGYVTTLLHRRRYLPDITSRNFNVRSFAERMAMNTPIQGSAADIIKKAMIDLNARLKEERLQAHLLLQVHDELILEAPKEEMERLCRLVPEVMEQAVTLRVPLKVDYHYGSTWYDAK

SMILES: [Ba+2] [Ba^2+]
- Kinetics of 3′-amino primer extension vs. absence of added divalent metals (wild-type BF): faster

SMILES: [Ca+2] [Ca^2+]
- SDKIE (BF F710Y [1]): 1.16
- pre-steady-state rate constant for nCTP addition (BF F710Y/D598A [2]; 55° C.): 0.069 min⁻¹
- Maximum reaction velocity, saturating Ca2+ vs. Mg2+ (wild-type BF; 1 mM dCTP): ~5 fold
- kpol of 3′-amino primer extension by wild-type BF (wild-type BF; 1 mM dCTP): 0.075 min⁻¹
- Kinetics of 3′-amino primer extension vs. absence of added divalent metals (wild-type BF): faster
- Kd (wild-type BF): 2100 µM
- Kinetic effect among divalent cofactors (wild-type BF; pH 8.8 and 55° C.): largest kinetic effect
- Maximum reaction velocity (wild-type BF; saturating metal ion): ~4.5 nt/hr

SMILES: [Lu+3] [Lu^3+]
- pre-steady-state rate constant for extension of a native DNA 3′-OH terminus with nCTP (BF): 8±1×10^−3 min^−1
- Multiple turnover activity in long primer extensions relative to Sc3+ (BF F710Y/D598A [3]; 55° C.): far weaker multiple turnover activity
- Effect on NP-DNA polymerization with all four nNTPs on mixed sequence templates (BF F710Y/D598A [3]): significantly improved
- burst activity kpol (BF F710Y/D598A [2]; 55° C., nCTP, mean±s.e.m): 6.9±0.7
- Effect on single-nucleotide 3′-amino primer extension (BF F710Y/D598A [2]; vs. Ca2+): significantly improved

SMILES: [Mg+2] [Mg^2+]
- Effect of added Mg2+ on NP-DNA synthesis activated by Sc3+ (BF F710Y/D598A [3]; low millimolar range): inhibited
- kpol of 3′-amino primer extension by wild-type BF (wild-type BF; 1 mM dCTP): 0.015 min⁻¹
- Kinetics of 3′-amino primer extension vs. absence of added divalent metals (wild-type BF): faster
- Kd (wild-type BF): 1300 µM

SMILES: Nc1ccn([C@H]2C[C@H](O)[C@@H](COP(O)(=S)OP(=O)(O)OP(=O)(O)O)O2)c(=O)n1 (stereo partly drawn) [Rp-dCTPαS, 2′-deoxycytidine 5′-O-(1-thiotriphosphate), reference compound]
- Additional thio effect for Rp vs. Sp substrate (BF F710Y [4]; Ca2+ activated): 4 fold

SMILES: [Sc+3] [Sc^3+]
- pre-steady-state rate constant for extension of a native DNA 3′-OH terminus with nCTP (BF): 5.5±0.6×10^−3 min^−1
- 3′-OH extension compared with 3′-NH2 extension (BF; nCTP): at least three orders of magnitude slower
- Length of NP-DNA strands yielded (BF F710Y/D598A [3]): ≥ 100 nts
- Overall NP polymerase reaction time to yield full length products (BF F710Y/D598A [3]; Sc3+ and spermine, 55° C.): 0.9-1.3 min/nt
- Effect on NP-DNA polymerization with all four nNTPs on mixed sequence templates (BF F710Y/D598A [3]): significantly improved
- Full length products on mixed sequence DNA templates (BF F710Y/D598A [3]; with spermine, 55° C.): up to +71 nt
- Time to synthesize full length products (BF F710Y/D598A [3]; with spermine, 55° C., +71 or +100 nt templates): 1 to 2 h
- Full length products on mixed sequence DNA templates, with additional enzyme (BF F710Y/D598A [3]; with spermine, additional enzyme, 55° C.): up to +100 nt
- Specificity for the Sp over Rp substrates (BF F710Y [4]; Sc3+ activated): 66 fold
- thio effect (BF F710Y [4]; Sc3+ activated, mean±s.d.): 0.58±0.07
- pre-steady-state rate constant for nCTP addition (BF F710Y/D598A [2]; 55° C.): 7.1 ± 0.5 min⁻¹ and 6.8 ± 0.3 min⁻¹
- Acceleration of kinetics over Ca2+ (BF F710Y/D598A [2]; 55° C.): ~100 fold
- Acceleration of kinetics over Ca2+ (BF F710Y/D598A [2]; 55° C., listed as Scandium(III)): > 100 fold
- Effect on single-nucleotide 3′-amino primer extension (BF F710Y/D598A [2]; vs. Ca2+): significantly improved
- Stabilization effect (BF F710Y/D598A [2]; vs. Ca2+): ca. −3 kcal/mol

SMILES: Nc1ccn([C@H]2C[C@H](O)[C@@H](COP(O)(=S)OP(=O)(O)OP(=O)(O)O)O2)c(=O)n1 (stereo partly drawn) [Sp-dCTPαS, 2′-deoxycytidine 5′-O-(1-thiotriphosphate), reference compound]
- thio effect kO/kS (BF F710Y [4]; Ca2+ activated, dCTP vs. Sp-dCTPαS, mean±s.d.): 10.6±0.5

SMILES: [Sr+2] [Sr^2+]
- Kinetics of 3′-amino primer extension vs. absence of added divalent metals (wild-type BF): faster

SMILES: [Y+3] [Y^3+]
- Effect on NP-DNA polymerization with all four nNTPs on mixed sequence templates (BF F710Y/D598A [3]): significantly improved
- Effect on single-nucleotide 3′-amino primer extension (BF F710Y/D598A [2]; vs. Ca2+): significantly improved

SMILES: NCCCNCCCCNCCCN [spermine]
- Activation of long NP-DNA synthesis by polyamine (BF F710Y/D598A [3]): optimal at low micromolar concentrations
